Experimental data published in patent US20220143050A1, “mTOR Inhibitor” (priority 2019, published 2022).
Where a name gives a salt, the structure may show the parent alone.

Key:
ERK = details: CD14+ monocyte, 10 μM, 2 hours, 100 ng/mL LPS, 30 minutes after LPS; FIG. 4B
Akt1 = Akt1 (Homo sapiens, UniProt P31749); assay: Surface plasmon resonance analysis of binding to Akt; details: Akt1 fixed on CM5 sensor chip, 25° C.; FIG. 7C
Method: The binding affinity of the peptide for the compound was analyzed using a surface plasmon resonance biosensor (Biacore X 100, GE Healthcare). Akt1 or BSA was fixed on the surface of a CM5 sensor chip using an amine coupling kit (GE Healthcare). Compounds at different concentrations, which were diluted with phosphate buffered saline containing 5% DMSO (10 mM phosphate buffer, 2.7 mM KCl, 137 mM NaCl, 0.05% surfactant P20, pH 7.4), were injected into the sensor chip at a flow rate of 20 μL/min at 25° C. for 120 seconds, and subsequently a buffer solution not containing the compounds was applied for 180 seconds. Kinetic parameters were determined by subtracting the bulk effect of DMSO using a reference flow cell and analyzing the data using Biacore X100 evaluation software (GE Healthcare).

HepG2 = assay: Subcutaneous HepG2 tumor in immunodeficient mice (NOD-SCID); type: in vivo, mouse; details: 90 mg/kg intraperitoneally every 3 days; for subcutaneous tumor diameter: measured 6 weeks after, vs DMSO group, p<0.05 or p<0.005, data not disclosed
Method: 90 mg/kg of DMSO (negative control), ETV, ADV, and TDF were intraperitoneally administered to 6-week-old immunodeficient mice (NOD-SCID), respectively (5 animals in each of the groups), HepG2 (5×10^6 cells) was subcutaneously administered 1 week after the start of administration, and the subcutaneous tumor diameter was measured 6 weeks thereafter. Each drug was intraperitoneally administered every 3 days from the start to the end of observation.

[1] = test system: LPS-stimulated peripheral blood mononuclear cell (PBMC); assay: Regulation of cytokine profile in LPS-stimulated PBMC (BioPlex / ELISA); type: cell-based, human; details: for IL-10 production (ELISA) / IL-12p70 production (ELISA): PBMC pretreated 2 hours at various concentrations, 100 ng/mL LPS, supernatant 24 hours after LPS
From the text: A peripheral blood mononuclear cell (PBMC) was separated from blood collected from a healthy volunteer (HV) and a chronic hepatitis B patient by a concentration gradient method. CD3+ T cell, CD19+B cell, CD56+NK cell, and CD14+ monocyte were respectively separated using magnetic antibodies.

[2] = test system: liver cancer cell lines (HepG2, PLC/PRF/5, Huh7, Hep3B, SKHep-1, HLE); assay: Antitumor effect in liver cancer cell lines, intracellular ATP amount (CellTiter-Glo); type: cell-based; details: cultured 72 hours, all of the cell lines; FIG. 12
[3] = test system: human liver cancer cell line (HepG2); assay: Phosphorylation of mTOR pathway proteins in HepG2 (western blot); type: cell-based; details: for phosphorylation of Akt and S6K and 4-EBP downstream thereof: HepG2, western blot
Method: After culturing the human liver cancer cell line (HepG2) in LAM, ETV, ADV, and TDF, phosphorylation of Akt in the mTOR pathway and S6K and 4-EBP downstream thereof was analyzed by western blot. Then, the phosphorylation of the above-mentioned proteins was suppressed in ADV and TDF in a dose-dependent manner, but there was no change in LAM and ETV.

MSK-1 = assay: Phosphorylation of MSK-1 in LPS-stimulated CD14+ monocyte (western blot); details: 10 μM, 2 hours, 100 ng/mL LPS, 30 minutes after LPS, FIG. 4B
p70S6K = assay: Phosphorylation of p70S6K in LPS-stimulated CD14+ monocyte (western blot); details: 100 ng/mL LPS, cell collected 2 hours after LPS, FIG. 4C
[4] = test system: CD14+ monocyte transfected with rictor siRNA; assay: IL-10 production in CD14+ monocyte after silencing rictor (mTORC2) by siRNA; type: cell-based, human; details: pretreated 2 hours, 100 ng/mL LPS, ELISA 24 hours after LPS, FIG. 10
Method: The results of confirming the expression levels of rictor, raptor, and β-actin 48 hours after transfection are shown. […] Chemically synthesized nucleotide siRNA including control siRNA was obtained from Santa Cruz (Dallas, Tex., USA). A cell was transfected with siRNA using a Nucleofector kit (Lonza, Cologne, Germany).

Akt [5] = assay: Phosphorylation of Akt in LPS-stimulated CD14+ monocyte (western blot); type: cell-based, human; details: 100 ng/mL LPS
LPS-stimulated PBMC = details: PBMC treated ex vivo with nucleic acid analog, IFN-α and LPS; FIG. 2
Method: In the case of interferon (IFN)-α alone, 10, 100, and 1000 U/mL were used.
Many types of cytokines in the culture supernatant were measured using a Bio-Plex Human Cytokine Panel (which enables measurement at one time).
Ex vivo treatment of the PBMC was performed with a nucleic acid analog, IFN-α, and LPS, and the levels of IL-10 and IL-12p70 in the supernatant were measured.

PTEN = PTEN and pPTEN expression in CD14+ monocyte (western blot of cytosol and nuclear fractions); type: cell-based, human; details: pretreated 2 hours, FIG. 9
From the text: The results obtained by further fractionating the cell into a cytosol fraction and a nuclear fraction, and performing western blot analysis on each of the obtained fractions are shown. Poly-ADP-ribose polymerase (PARP) is the internal control of a nuclear protein, and β-actin is the internal control of the cytosol fraction. The number n is at least 3.
For the separation of the cytoplasm and the cell membrane, a MEM-PERTMPlus cell membrane protein extraction kit was used, and the protocol indicated by the product was followed. Briefly speaking, the collected cell was washed and then reacted with a buffer (to perforate the cell membrane) at 4° C. for 10 minutes. After centrifuging at 16,000 g for 15 minutes, the supernatant was collected in a new tube (cytoplasmic component). The precipitate (cell membrane) in the tube in the previous step was washed once with the above-mentioned buffer, and then reacted with a cell membrane melting buffer at 4° C. for 30 minutes while occasionally applying vibration. Thereafter, after centrifuging at 16,000 g for 15 minutes, the supernatant was collected in a new tube (cell membrane component). The cytoplasmic and nuclear components were separated using a cytoplasm/nuclear extraction kit. […]

IFN-λ3 = details: hepatitis B patients taking the drug; cited from earlier work
GSK-3β = assay: Phosphorylation of GSK-3β in LPS-stimulated CD14+ monocyte (western blot); type: cell-based, human; details: 2 hours treatment, 100 ng/mL LPS, 2 hours after LPS, FIG. 4E
[6] = test system: phosphatidylinositol-3 kinase and phosphoinositide-dependent kinase 1; assay: Phosphorylation of proteins upstream of Akt in LPS-stimulated CD14+ monocyte (western blot); details: pretreated 2 hours, 100 ng/mL LPS, 2 hours after LPS, FIG. 7A
Method: An Akt inhibitor 2 (Akt-1/2) and bovine serum albumin (BSA) were respectively used as a positive control and a negative control.
The phosphorylation of several proteins upstream of Akt, such as phosphatidylinositol-3 kinase and phosphoinositide-dependent kinase 1, was analyzed.

[7] = test system: mouse liver cancer cell lines (MHCF1 and MHCF5) and a mouse colon cancer cell line (CMT-93); assay: Phosphorylation of Akt and GSK-3β in mouse cancer cell lines (western blot); type: cell-based; details: MHCF1, MHCF5 and CMT-93, western blotting; data not disclosed
intestinal cell = details: in vitro system; cited from earlier work
[8] = test system: HT1080 cell stably expressing Akt 2-PH-EGFP; assay: Transition of Akt to the cell membrane, fluorescent immunochemical staining / confocal microscope; type: cell-based; details: treated 2 hours, FIG. 7B
Method: AKT2-PH-EGFP tagged with HA was inserted into a pCSII-EF1α-MCS-IRES2-Blasticidin lentivirus vector. The lentivirus was infected with a HT1080 cell, and the cell was cultured in a DMEM solution containing […] of blasticidin. For observation of the intracellular migration of PH-EGFP, phosphorylated Akt, and Akt-PH-EGFP, after culturing HT1080 cell expressing each of them on a cover glass with DMSO, LAM, ADV, ETV, and TDF for 2 hours, the cell was fixed with 3.7% formalin, and thereafter nuclear staining of phosphorylated AKt (S473) and DAPI were performed to observe under a microscope.

Akt [9] = assay: Phosphorylation of Akt in LPS-stimulated PBMC (western blot); type: cell-based, human; details: various concentrations, cell recovered 2 hours after LPS, FIG. 7E
[10] = PBMC from HV, pretreated 2 hours with nucleic acid analog, then LPS, BioPlex cytokine assay, FIG. 1A

Akt1, sequence (P31749 whole entry): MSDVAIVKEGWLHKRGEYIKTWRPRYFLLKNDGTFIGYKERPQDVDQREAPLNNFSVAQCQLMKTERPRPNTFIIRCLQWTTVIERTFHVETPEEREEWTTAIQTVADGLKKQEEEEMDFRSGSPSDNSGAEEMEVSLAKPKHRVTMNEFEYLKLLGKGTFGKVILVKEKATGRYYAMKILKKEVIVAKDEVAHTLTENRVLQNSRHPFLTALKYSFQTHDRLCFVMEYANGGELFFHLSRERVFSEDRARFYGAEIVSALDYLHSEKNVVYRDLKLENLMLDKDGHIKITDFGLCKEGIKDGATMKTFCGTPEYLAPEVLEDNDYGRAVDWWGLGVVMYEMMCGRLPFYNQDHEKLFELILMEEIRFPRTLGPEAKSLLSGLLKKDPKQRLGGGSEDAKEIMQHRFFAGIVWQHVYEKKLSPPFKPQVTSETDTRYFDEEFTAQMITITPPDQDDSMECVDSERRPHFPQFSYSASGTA

N#CC(=C(/N)Sc1ccccc1N)/C(C#N)=C(\N)Sc1ccccc1N [U0126]
phosphorylation of ERK (ERK): inhibited

C[C@H](Cn1cnc2c(N)ncnc21)OCP(=O)(O)OP(=O)(O)O [TFV, tenofovir monophosphate]
binding to the Akt protein (surface plasmon resonance biosensor) (Akt1): bound to the Akt protein in a dose-dependent manner

C=C1[C@H](CO)[C@@H](O)C[C@@H]1n1cnc2c(=O)[nH]c(N)nc21 [ETV, entecavir]
subcutaneous tumor diameter (HepG2): not different | LPS-induced cytokine production (IL-10, IL-12p70, and TNF-α) compared with DMSO [1, 10]: only the same effect as that of DMSO | number of a survived cell (intracellular ATP amount) [2]: not recognized | phosphorylation of Akt and S6K and 4-EBP downstream thereof [3]: no change

Oc1ccc(-c2nc(-c3ccncc3)c(-c3ccc(F)cc3)[nH]2)cc1 [SB202198]
phosphorylation of MSK-1 (MSK-1): inhibited

CC(C)OC(=O)OCOP(=O)(CO[C@H](C)Cn1cnc2c(N)ncnc21)OCOC(=O)OC(C)C [TDF, tenofovir disoproxil fumarate]
phosphorylation of p70S6K (p70S6K): inhibited | tumor growth in one example of the group (HepG2): did not grow at all | subcutaneous tumor diameter (HepG2): suppressed | restoration of the decrease in IL-10 levels by silencing rictor [4]: not restored | phosphorylation of Akt, dose dependence (Akt [5]; CD14+ monocyte, 1:3 dilution, FIG. 4D): inhibited the phosphorylation of Akt in a dose-dependent manner | phosphorylation of Akt (Akt [5]; CD14+ monocyte, cell collected 2 hours after LPS, FIG. 4C): inhibited | dose dependence of the regulation of IL-12p70, IL-10 and TNF-α ([1]; LPS-stimulated PBMC, 1:3 dilution, FIG. 1C): dose dependent | LPS-induced IL-10 production [1, 10]: inhibited | LPS-induced IL-12p70 production [1, 10]: significantly induced | LPS-induced TNF-α production [1, 10]: significantly induced | LPS-mediated IL-12p70 production in combination with IFN-α (LPS-stimulated PBMC): synergistically enhanced | PTEN or pPTEN expression level (PTEN): did not affect | serum IFN-λ3 value (IFN-λ3): high value | phosphorylation of GSK-3β (GSK-3β): inhibited | phosphorylation of proteins upstream of Akt (phosphatidylinositol-3 kinase and phosphoinositide-dependent kinase 1) [6]: did not inhibit | phosphorylation of mTOR-related protein (Akt and GSK-3β (S9)) [7]: not recognized | IFN-λ3 induction (intestinal cell): induces | number of a survived cell (intracellular ATP amount) [2]: significantly reduced | phosphorylation of Akt and S6K and 4-EBP downstream thereof [3]: suppressed | phosphorylation of mTOR-related protein (Akt and GSK-3β (S9)) ([3]; HepG2 cell, western blotting, data not disclosed): suppressed | transposition of Akt-PH to the cell membrane ([8]; HT1080 cell, confocal microscope): significantly inhibited | phosphorylation of Akt (Ser 473) in HT-1080 cell ([8]; HT-1080 cell, anti-phospho-Akt staining): inhibited

NC(=O)c1ncn([C@@H]2O[C@H](CO)[C@@H](O)[C@H]2O)c1N [AICAR, 5-Aminoimidazole-4-carboxamide-1-β-D-ribofuranoside]
phosphorylation of Akt (Akt [5]; CD14+ monocyte pretreated 2 hours at various concentrations, 2 hours after LPS, FIG. 11B): enhanced phosphorylation of Akt in a dose-dependent manner | IL-10 production (ELISA) [1]: inhibited | IL-12p70 production (ELISA) [1]: induced

CCCCCCCCCCCCCCCCCCOP(=O)([O-])OC1CC[N+](C)(C)CC1 [perifosine]
phosphorylation of Akt (Akt [9]): inhibited phosphorylation of Akt in a dose-dependent manner | IL-10 production (ELISA) [1]: decreased | IL-12p70 production (ELISA) [1]: increased
